# Earlier results in PMC4206604 (Journal of pharmaceutical sciences, 2014).
# Target: T1, NTCP (Homo sapiens, UniProt Q14973)
# T1 sequence (Q14973 1-349): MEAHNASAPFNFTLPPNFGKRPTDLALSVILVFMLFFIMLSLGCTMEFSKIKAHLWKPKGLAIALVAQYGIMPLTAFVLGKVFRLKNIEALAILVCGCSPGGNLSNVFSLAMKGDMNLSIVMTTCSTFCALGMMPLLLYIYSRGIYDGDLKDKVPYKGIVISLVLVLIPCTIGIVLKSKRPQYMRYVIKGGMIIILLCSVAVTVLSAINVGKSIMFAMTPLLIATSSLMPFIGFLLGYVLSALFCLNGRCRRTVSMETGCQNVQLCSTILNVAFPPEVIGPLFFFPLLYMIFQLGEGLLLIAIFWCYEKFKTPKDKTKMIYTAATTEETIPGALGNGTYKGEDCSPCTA
# Details: read-out: NTCP Km; same cell line
smiles,measurement,value
C[C@H](CCC(=O)NCCS(=O)(=O)O)[C@H]1CC[C@H]2[C@@H]3[C@H](O)C[C@@H]4C[C@H](O)CC[C@]4(C)[C@H]3C[C@H](O)[C@]12C [taurocholate],Km,5.31 µM
